{"source": "ChEMBL document CHEMBL1135965", "about": "“A novel dicyanotriterpenoid, 2-cyano-3,12-dioxooleana-1,9(11)-dien-28-onitrile, active at picomolar concentrations for inhibition of nitric oxide production” (Bioorg Med Chem Lett, 2002)", "data": [{"species_on_record": "Mus musculus", "assay": "Inhibitory activity against production of nitric oxide induced by interferon gamma in mouse macrophages", "assay_type": "functional, organism-based", "units": {"IC50": "nM"}, "values": [{"smiles": "CC1(C)CC[C@]2(C(=O)O)CC[C@]3(C)[C@H](C(=O)C=C4[C@@]5(C)C=C(C#N)C(=O)C(C)(C)[C@@H]5CC[C@]43C)[C@@H]2C1", "note": "[BARDOXOLONE]", "IC50": 0.44}, {"smiles": "CC1(C)CC[C@]2(C(=O)O)CC[C@]3(C)C(=CC[C@@H]4[C@@]5(C)CC[C@H](O)C(C)(C)[C@@H]5CC[C@]43C)[C@@H]2C1", "note": "[OLEANOLIC_ACID]", "IC50": "> 40000"}, {"smiles": "CC1(C)CC[C@]2(C(=O)N3CCCC3)CC[C@]3(C)C(C(=O)C=C4[C@@]5(C)C=C(C#N)C(=O)C(C)(C)[C@@H]5CC[C@]43C)C2C1", "note": "(stereo not given in full)", "IC50": 0.8}, {"smiles": "COC(=O)[C@]12CCC(C)(C)CC1C1C(=O)C=C3[C@@]4(C)C=C(C(=O)O)C(=O)C(C)(C)[C@@H]4CC[C@@]3(C)[C@]1(C)CC2", "note": "(stereo not given in full)", "IC50": 9.55}, {"smiles": "CCOC(=O)[C@]12CCC(C)(C)CC1C1C(=O)C=C3[C@@]4(C)C=C(C#N)C(=O)C(C)(C)[C@@H]4CC[C@@]3(C)[C@]1(C)CC2", "note": "(stereo not given in full)", "IC50": 0.8}, {"smiles": "CCCCCCNC(=O)[C@]12CCC(C)(C)CC1C1C(=O)C=C3[C@@]4(C)C=C(C#N)C(=O)C(C)(C)[C@@H]4CC[C@@]3(C)[C@]1(C)CC2", "note": "(stereo not given in full)", "IC50": 14.9}, {"smiles": "CC1(C)CC[C@]2(C(=O)n3ccnc3)CC[C@]3(C)[C@H](C(=O)C=C4[C@@]5(C)C=C(C#N)C(=O)C(C)(C)[C@@H]5CC[C@]43C)[C@@H]2C1", "IC50": 0.014}, {"smiles": "CC1(C)CC[C@]2(C#N)CC[C@]3(C)C(C(=O)C=C4[C@@]5(C)C=C(C(=O)O)C(=O)C(C)(C)[C@@H]5CC[C@]43C)C2C1", "note": "(stereo not given in full)", "IC50": 1.68}, {"smiles": "CC1(C)CC[C@]2(C(=O)NCc3ccccc3)CC[C@]3(C)C(C(=O)C=C4[C@@]5(C)C=C(C#N)C(=O)C(C)(C)[C@@H]5CC[C@]43C)C2C1", "note": "(stereo not given in full)", "IC50": 9.2}, {"smiles": "CN(C)C(=O)[C@]12CCC(C)(C)CC1C1C(=O)C=C3[C@@]4(C)C=C(C#N)C(=O)C(C)(C)[C@@H]4CC[C@@]3(C)[C@]1(C)CC2", "note": "(stereo not given in full)", "IC50": 1.55}, {"smiles": "CC1(C)CC[C@]2(C(=O)O[C@@H]3O[C@H](CO)[C@@H](O)[C@H](O)[C@H]3O)CC[C@]3(C)C(C(=O)C=C4[C@@]5(C)C=C(C#N)C(=O)C(C)(C)[C@@H]5CC[C@]43C)C2C1", "note": "(stereo not given in full)", "IC50": 10.1}, {"smiles": "COC(=O)[C@]12CCC(C)(C)C[C@H]1[C@H]1C(=O)C=C3[C@@]4(C)C=C(C#N)C(=O)C(C)(C)[C@@H]4CC[C@@]3(C)[C@]1(C)CC2", "note": "[BARDOXOLONE METHYL]", "IC50": 0.11}, {"smiles": "C=CCOC(=O)[C@]12CCC(C)(C)CC1C1C(=O)C=C3[C@@]4(C)C=C(C#N)C(=O)C(C)(C)[C@@H]4CC[C@@]3(C)[C@]1(C)CC2", "note": "(stereo not given in full)", "IC50": 1.33}, {"smiles": "CC1(C)CC[C@]2(C(=O)OCC3CC3)CC[C@]3(C)C(C(=O)C=C4[C@@]5(C)C=C(C#N)C(=O)C(C)(C)[C@@H]5CC[C@]43C)C2C1", "note": "(stereo not given in full)", "IC50": 4.45}, {"smiles": "CCCNC(=O)[C@]12CCC(C)(C)CC1C1C(=O)C=C3[C@@]4(C)C=C(C#N)C(=O)C(C)(C)[C@@H]4CC[C@@]3(C)[C@]1(C)CC2", "note": "(stereo not given in full)", "IC50": 1.5}, {"smiles": "CNC(=O)[C@]12CCC(C)(C)CC1C1C(=O)C=C3[C@@]4(C)C=C(C#N)C(=O)C(C)(C)[C@@H]4CC[C@@]3(C)[C@]1(C)CC2", "note": "(stereo not given in full)", "IC50": 0.58}, {"smiles": "CC1(C)CC[C@]2(C(=O)N3CCOCC3)CC[C@]3(C)C(C(=O)C=C4[C@@]5(C)C=C(C#N)C(=O)C(C)(C)[C@@H]5CC[C@]43C)C2C1", "note": "(stereo not given in full)", "IC50": 2.4}, {"smiles": "CCCN(CCC)C(=O)[C@]12CCC(C)(C)CC1C1C(=O)C=C3[C@@]4(C)C=C(C#N)C(=O)C(C)(C)[C@@H]4CC[C@@]3(C)[C@]1(C)CC2", "note": "(stereo not given in full)", "IC50": 32.9}, {"smiles": "CC1(C)CC[C@]2(C(=O)Nc3ccccc3)CC[C@]3(C)C(C(=O)C=C4[C@@]5(C)C=C(C#N)C(=O)C(C)(C)[C@@H]5CC[C@]43C)C2C1", "note": "(stereo not given in full)", "IC50": 28.6}, {"smiles": "CC(=O)OC[C@H]1O[C@@H](OC(=O)[C@]23CCC(C)(C)CC2C2C(=O)C=C4[C@@]5(C)C=C(C#N)C(=O)C(C)(C)[C@@H]5CC[C@@]4(C)[C@]2(C)CC3)[C@H](OC(C)=O)[C@H](OC(C)=O)[C@@H]1OC(C)=O", "note": "(stereo not given in full)", "IC50": 0.07}, {"smiles": "CC1(C)CC[C@]2(C(=O)N3CCC(N4CCCCC4)CC3)CC[C@]3(C)C(C(=O)C=C4[C@@]5(C)C=C(C#N)C(=O)C(C)(C)[C@@H]5CC[C@]43C)C2C1", "note": "(stereo not given in full)", "IC50": 1}, {"smiles": "CC1(C)CC[C@]2(C#N)CC[C@]3(C)C(C(=O)C=C4[C@@]5(C)C=C(C#N)C(=O)C(C)(C)[C@@H]5CC[C@]43C)C2C1", "note": "(stereo not given in full) [CDDO-CN]", "IC50": 0.0035}, {"smiles": "CC1(C)CC[C@]2(C(=O)NN)CC[C@]3(C)C(C(=O)C=C4[C@@]5(C)C=C(C#N)C(=O)C(C)(C)[C@@H]5CC[C@]43C)C2C1", "note": "(stereo not given in full)", "IC50": 0.26}, {"smiles": "CC1(C)CC[C@]2(C(N)=O)CC[C@]3(C)C(C(=O)C=C4[C@@]5(C)C=C(C#N)C(=O)C(C)(C)[C@@H]5CC[C@]43C)C2C1", "note": "(stereo not given in full)", "IC50": 0.098}, {"smiles": "CC1(C)CC[C@]2(C(=O)OCc3ccccc3)CC[C@]3(C)C(C(=O)C=C4[C@@]5(C)C=C(C#N)C(=O)C(C)(C)[C@@H]5CC[C@]43C)C2C1", "note": "(stereo not given in full)", "IC50": 4.35}, {"smiles": "CC1(C)CC[C@]2(C(=O)N3CCCCC3)CC[C@]3(C)C(C(=O)C=C4[C@@]5(C)C=C(C#N)C(=O)C(C)(C)[C@@H]5CC[C@]43C)C2C1", "note": "(stereo not given in full)", "IC50": 0.95}, {"smiles": "CCCCCCCCOC(=O)[C@]12CCC(C)(C)CC1C1C(=O)C=C3[C@@]4(C)C=C(C#N)C(=O)C(C)(C)[C@@H]4CC[C@@]3(C)[C@]1(C)CC2", "note": "(stereo not given in full)", "IC50": 60.4}, {"smiles": "CC1(C)CC[C@]2(C(=O)n3cccn3)CC[C@]3(C)C(C(=O)C=C4[C@@]5(C)C=C(C#N)C(=O)C(C)(C)[C@@H]5CC[C@]43C)C2C1", "note": "(stereo not given in full)", "IC50": 12}, {"smiles": "CCCCOC(=O)[C@]12CCC(C)(C)CC1C1C(=O)C=C3[C@@]4(C)C=C(C#N)C(=O)C(C)(C)[C@@H]4CC[C@@]3(C)[C@]1(C)CC2", "note": "(stereo not given in full)", "IC50": 6.65}, {"smiles": "CCOC(=O)[C@]12CCC(C)(C)CC1C1C(=O)C=C3[C@@]4(C)C=C(C(=O)O)C(=O)C(C)(C)[C@@H]4CC[C@@]3(C)[C@]1(C)CC2", "note": "(stereo not given in full)", "IC50": 7.93}]}]}
